The results in this text go back to US11944665B2, “Methods and compositions for modulating lymphatic vessels in the central nervous system” (University of Virginia Patent Foundation, priority 2016, dated 2024).

For assay [1], the system named is meningeal lymphatic vessels. Briefly: EAE (MOG35-55) after Visudyne meningeal lymphatic ablation. In kind it is in vivo, C57b16 mice. On the procedure:
FIG. 22 is a graph showing ablation of the meningeal lymphatic decreases EAE score. Adult C57b16 mice were injected ICV (cisterna magna) or intranasally with Visudyne that was then photoconverted (Meningeal ablation) or not (Control). On the same day, EAE was induced by injected MOG 35-55 emulsion subcutaneously. At day 17 mice were scored prior to sacrifice (brain, meninges, and spinal cord were harvested for IHC to measure the amount of demyelination and the infiltrate).
EAE clinical symptom development in laser. Visudyne (i.n.)+laser and Visudyne (i.c.m.)+laser treated mice. (mean±s.e.m. n=12-41 mice/group pooled from 3 independent experiments, ****p<0.0001, repeated measures 2 way ANOVA with Tukey's multiple comparisons test) is shown in FIG. 51A. Incidence of EAE development (day mice reach a score of 1 or above) in laser, Visudyne (i.n.)+laser and Visudyne (i.c.m.)+laser treated mice. Representative dot plots of CD4 and CD8 T cells in the spinal cord of laser and Visudyne (i.c.m.)+laser mice during late onset EAE (D17) are shown in FIG. 51C. Quantification of the number of CD4 T cells in the spinal cord of laser and Visudyne (i.c.m.)+laser treated mice at D17 post immunization. (mean±s.e.m. n=4/5 mice per group, representative of 2 independent experiments, **p=0.005, unpaired t test) is shown in FIG. 51D. […] Accordingly, it is contemplated that ablation of lymphatic vessels in accordance with some embodiments herein can ameliorate symptoms and disease development of MS, for which EAE (MOG) is a model.

Another assay relates to nasal lymphatics. The experiment in a line: Nasal lymphatics after intranasal Visudyne (Example 25). In kind it is in vivo, mice. The settings on record: 24 h after intranasal (i.n.) injection. On the procedure: Adult mice were injected i.c.m. with Visudyne. Fifteen to thirty minutes injection, Visudyne was converted using a non-thermal 689 nm laser applied on the intact skull. In the targeted group, the laser was aimed at 5 different spots localized above the meningeal lymphatics. In the non-targeted group, the laser was aimed further away to no convert the Visudyne localized within the meningeal lymphatics.
The density of exogenously injected T cells per mm2 of dCLN in targeted and non-targeted Visudyne treated mice was quantified (FIG. 49A) (expressed as percentage of the control condition)(mean±s.e.m, n=4-6 mice/group, **p=0.0072 Student t test). Images of the nasal lymphatics (Prox1GFP—green, Lyve1—red) were obtained 24 h after laser or intranasal (i.n.) injection of Visudyne. The inset illustrate the lymphatic bundle at the base of the skull that gets ablated after Visudyne treatment. Scale bar=50 μm. The density of T cells per mm2 of dCLN was quantified (FIG. 49B) or percentage of beads coverage was quantified (FIG. 49C) in the dLCN of laser, Visudyne (i.n.)+laser and Visudyne (i.c.m.)+laser treated mice (expressed as percentage of the control condition). […] T cells were quantified in the meninges of laser and Visudyne (i.c.m.)+laser treated mice at 7 days post ablation. T cells were quantified in the meninges of laser and Visudyne (i.c.m.)+laser treated mice (FIG. 49D). […]

Assay [2] concerns meningeal lymphatic vessels. Briefly: Photoablation of meningeal lymphatic vessels, multiphoton 690 nm laser through thin skull (FIG. 18). Conditions: 2 μl i.c.v., two hours after the ablation. Type of assay: in vivo, mice. Here is the method:
FIGS. 18A-D are a series of microscope images and graphs showing photoablation of meningeal lymphatic vessels. […] (cisterna magna) with 2 μl of Visudyne, which was activated using 690 nm laser of multiphoton microscope through thin skull. Two hours after the ablation, the meninges were collected and stained for lymphatic endothelial cell (Lyve-1) and blood vessels (laminin).

The subject of assay [3] is meningeal lymphatic vessels. The experiment in a line: Visudyne meningeal lymphatic ablation, Aβ42 drainage and efflux (Example 1). Type of assay: in vivo, C57BL/6 mice. The settings on record: vs vehicle. On the procedure: Visudyne (verteporfin) or vehicle (as control) were injected into the cisterna magna (intra-cisterna magna, ICM) of anesthetized adult C57BL/6 mice (3 months of age), followed by a photoconversion step that was achieved by shining a non-thermal red light (689 nm) in 5 points above the skull. 7 days after the initial procedure, Aβ42-HiLyte647 (1 μg) was stereotaxically injected (coordinates from bregma, AP=+1.5 mm, ML=−1.5 mm, DV=+2.5 mm) into the brain parenchyma. 1 h post injection, mice were transcardially perfused with saline and meninges, deep cervical lymph nodes (dcLNs) and brain were collected for analysis. Meningeal whole-mounts (scale bar, 1 mm) from vehicle (FIG. 23A) or visudyne (FIG. 23B) injected groups were stained for lymphatic vessel, endothelial hyaluronan receptor 1 (LYVE-1, green) and the blood vascular endothelial cell marker CD31 (red). Visudye alone is shown in the inset in the upper right corner of FIGS. 23A and 23B. […] Aβ42 alone is shown in the inset in the upper right corner of each of FIGS. 23E and 23F, and LYVE-1 alone is shown in the inset in the lower right corner of each of FIGS. 23E and 23F. Coronal brain sections (100 μm thick), both rostral and caudal to the injection site, were stained for glial fibrillary acidic protein (GFAP). […] Results are presented as mean±s.e.m. in FIGS. 23C, D, and G; n=6 in vehicle group and n=5 in visudyne group; *P<0.05. **P<0.01, one-tailed Mann-Whitney test; representative of 2 independent experiments).

As for verteporfin [Visudyne], the EAE disease development entry in assay [1] (Visudyne (i.c.m.)+laser vs laser and Visudyne (i.n.)+laser) was “ameliorate disease development”. Also, the “MOG-specific T cell activation in the deep cervical lymph nodes” value in assay [1] (Visudyne (i.c.m.)+laser vs laser, EAE) is listed as “ameliorates MOG-specific T cell activation”. In addition, the “EAE score / disease severity” value in assay [1] (Visudyne ICV (cisterna magna) or intranasal, photoconverted vs not, scored day 17) is listed as “decreases disease severity”. Further, in the assay on nasal lymphatics, the “nasal lymphatic bundle at the base of the skull” value is reported as “gets ablated”. In addition, in assay [2], the “effect on the blood vessels (laminin)” value was “No effect on the blood vessels was observed”, the “lymphatic vessels at the area of ablation (superior sagittal sinus)” value is “Disruption of lymphatic vessels is evident” and the “lymphatic vessels in transverse sinuses” value is listed as “trend to disruption”. Also, the “drainage of Aβ42 in dcLNs” value in assay [3] (1 h after Aβ42-HiLyte647 (1 μg) injection into brain parenchyma, 7 days post ablation) is “significantly less drainage”. Further, the “efflux of Aβ42 from the brain (area fraction occupied by the fluorescent peptide)” value in assay [3] (1 h after Aβ42-HiLyte647 injection, 7 days post ablation) is given as “decreased efflux”. Also, in assay [3] (visudyne ICM + photoconversion 689 nm, adult mice, 7 days after), the “area of LYVE-1+ vessels (meningeal whole-mounts)” value was “significant decrease”. In addition, the “coverage by CD31+ vessels (meningeal whole-mounts)” value in assay [3] (visudyne ICM + photoconversion, 7 days after) is “no changes”.
